Measurements reported in ChEMBL document CHEMBL1201862, “PubChem BioAssay data set” (2004).
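48-hour exposure; five concentrations; linearly interpolated endpoints. At the GI50, growth is halved.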 The source made the active and inactive calls. Cut-off read from the data, not from the text of the source: active = GI50 up to about 1.1 µM and inactive = higher.

Assays:
Experiment in all cases: inhibition of tumour cell growth, NCI panel, 48 h
A498 = system: A498
DU-145 = system: DU-145
EKVX = system: EKVX
HOP-62 = system: HOP-62
Hs-578T = system: Hs-578T
K562 = system: K562
KM12 = system: KM12
M14 = system: M14
MCF7 = system: MCF7
Malme-3M = system: Malme-3M
NCI-H226 = system: NCI-H226
OVCAR-5 = system: OVCAR-5
RPMI-8226 = system: RPMI-8226
SF-539 = system: SF-539
SK-MEL-5 = system: SK-MEL-5
SR = system: SR
SW-620 = system: SW-620
T47D = system: T47D
U-251 = system: U-251
UACC-62 = system: UACC-62

CCCCCCCCCCCC[C@@H](O)[C@H]1CC[C@H]([C@H](O)CCCC[C@H](O)CCCCC[C@@H](O)CC2=C[C@H](C)OC2=O)O1
GI50 (A498): 3.55 µM (inactive) | GI50 (DU-145): 6.4 µM (inactive) | GI50 (EKVX): 0.562 µM (active) | GI50 (HOP-62): 2.59 µM (inactive) | GI50 (Hs-578T): 3.17 µM (inactive) | GI50 (K562): 0.213 µM (active) | GI50 (KM12): 3.35 µM (inactive) | GI50 (M14): 2.45 µM (inactive) | GI50 (MCF7): 1.64 µM (inactive) | GI50 (Malme-3M): 2.09 µM (inactive) | GI50 (NCI-H226): 3.11 µM (inactive) | GI50 (OVCAR-5): 1.18 µM (inactive) | GI50 (RPMI-8226): 0.362 µM (active) | GI50 (SF-539): 2.97 µM (inactive) | GI50 (SK-MEL-5): 0.0143 µM (active) | GI50 (SR): 2.54 µM (inactive) | GI50 (SW-620): 3.22 µM (inactive) | GI50 (T47D): 2.39 µM (inactive) | GI50 (U-251): 2.78 µM (inactive) | GI50 (UACC-62): 1.87 µM (inactive)

Cn1c(=O)c2c(ncn2CN2CCN(Cn3cnc4c3c(=O)n(C)c(=O)n4C)CC2)n(C)c1=O
GI50 (A498): > 100 µM (inactive) | GI50 (DU-145): 45.7 µM (inactive) | GI50 (EKVX): 29.1 µM (inactive) | GI50 (HOP-62): > 100 µM (inactive) | GI50 (Hs-578T): > 100 µM (inactive) | GI50 (K562): 31.7 µM (inactive) | GI50 (KM12): 92.5 µM (inactive) | GI50 (M14): 38.5 µM (inactive) | GI50 (MCF7): 16.9 µM (inactive) | GI50 (Malme-3M): 73.6 µM (inactive) | GI50 (NCI-H226): > 100 µM (inactive) | GI50 (OVCAR-5): > 100 µM (inactive) | GI50 (RPMI-8226): 22.7 µM (inactive) | GI50 (SF-539): 56.2 µM (inactive) | GI50 (SK-MEL-5): > 100 µM (inactive) | GI50 (SR): 28.6 µM (inactive) | GI50 (SW-620): 23.2 µM (inactive) | GI50 (T47D): 30.5 µM (inactive) | GI50 (U-251): > 100 µM (inactive) | GI50 (UACC-62): 45.7 µM (inactive)

CCOC(=O)C1=CN(C(=O)c2ccccc2)CCC1Cc1ccccc1 (stereo not given)
GI50 (A498): 7.87 µM (inactive) | GI50 (DU-145): 40.9 µM (inactive) | GI50 (EKVX): 24 µM (inactive) | GI50 (HOP-62): 30 µM (inactive) | GI50 (Hs-578T): 20.5 µM (inactive) | GI50 (K562): 17.6 µM (inactive) | GI50 (KM12): 26.1 µM (inactive) | GI50 (M14): 18.6 µM (inactive) | GI50 (MCF7): 23.1 µM (inactive) | GI50 (Malme-3M): 25.4 µM (inactive) | GI50 (NCI-H226): 43.6 µM (inactive) | GI50 (OVCAR-5): 44.6 µM (inactive) | GI50 (RPMI-8226): 13.5 µM (inactive) | GI50 (SF-539): 21.5 µM (inactive) | GI50 (SK-MEL-5): 15 µM (inactive) | GI50 (SR): 12.5 µM (inactive) | GI50 (SW-620): 26 µM (inactive) | GI50 (T47D): 12.5 µM (inactive) | GI50 (U-251): 21.1 µM (inactive) | GI50 (UACC-62): 13.7 µM (inactive)

CN(C)CC1CCCCCC(Br)C1=O (stereo not given)
GI50 (A498): 54.8 µM (inactive) | GI50 (DU-145): 12.1 µM (inactive) | GI50 (EKVX): 15.1 µM (inactive) | GI50 (HOP-62): 24.8 µM (inactive) | GI50 (Hs-578T): 17.1 µM (inactive) | GI50 (K562): 2.02 µM (inactive) | GI50 (KM12): 18.4 µM (inactive) | GI50 (M14): 15.6 µM (inactive) | GI50 (MCF7): 2.71 µM (inactive) | GI50 (Malme-3M): 6.5 µM (inactive) | GI50 (NCI-H226): 20.7 µM (inactive) | GI50 (OVCAR-5): 17.2 µM (inactive) | GI50 (RPMI-8226): 0.61 µM (active) | GI50 (SF-539): 17.3 µM (inactive) | GI50 (SK-MEL-5): 15.5 µM (inactive) | GI50 (SR): 1.64 µM (inactive) | GI50 (SW-620): 3.71 µM (inactive) | GI50 (T47D): 9.23 µM (inactive) | GI50 (U-251): 19.6 µM (inactive) | GI50 (UACC-62): 18.7 µM (inactive)

NC(=O)/C=C/NC(=O)/C=N\O
GI50 (A498): > 100 µM (inactive) | GI50 (DU-145): > 100 µM (inactive) | GI50 (EKVX): > 100 µM (inactive) | GI50 (HOP-62): > 100 µM (inactive) | GI50 (Hs-578T): > 100 µM (inactive) | GI50 (K562): > 100 µM (inactive) | GI50 (KM12): > 100 µM (inactive) | GI50 (M14): > 100 µM (inactive) | GI50 (MCF7): > 100 µM (inactive) | GI50 (Malme-3M): > 100 µM (inactive) | GI50 (NCI-H226): > 100 µM (inactive) | GI50 (OVCAR-5): > 100 µM (inactive) | GI50 (RPMI-8226): > 100 µM (inactive) | GI50 (SF-539): > 100 µM (inactive) | GI50 (SK-MEL-5): > 100 µM (inactive) | GI50 (SR): > 100 µM (inactive) | GI50 (SW-620): > 100 µM (inactive) | GI50 (T47D): > 100 µM (inactive) | GI50 (U-251): > 100 µM (inactive) | GI50 (UACC-62): > 100 µM (inactive)

COc1cc2nc(-c3cccs3)nc(Nc3ccccc3C(=O)NN)c2cc1OC
GI50 (A498): > 100 µM (inactive) | GI50 (DU-145): > 100 µM (inactive) | GI50 (EKVX): > 100 µM (inactive) | GI50 (HOP-62): > 100 µM (inactive) | GI50 (Hs-578T): > 100 µM (inactive) | GI50 (K562): 97.5 µM (inactive) | GI50 (KM12): > 100 µM (inactive) | GI50 (M14): > 100 µM (inactive) | GI50 (MCF7): > 100 µM (inactive) | GI50 (Malme-3M): > 100 µM (inactive) | GI50 (NCI-H226): > 100 µM (inactive) | GI50 (OVCAR-5): > 100 µM (inactive) | GI50 (RPMI-8226): > 100 µM (inactive) | GI50 (SF-539): > 100 µM (inactive) | GI50 (SK-MEL-5): > 100 µM (inactive) | GI50 (SR): 23.6 µM (inactive) | GI50 (SW-620): > 100 µM (inactive) | GI50 (T47D): > 100 µM (inactive) | GI50 (U-251): 96.2 µM (inactive) | GI50 (UACC-62): > 100 µM (inactive)

CC1(C)N=C(N)N=C(N)N1c1cccc(CSc2ccccc2)c1
GI50 (A498): > 100 µM (inactive) | GI50 (DU-145): 0.592 µM (active) | GI50 (EKVX): 23 µM (inactive) | GI50 (HOP-62): 6.4 µM (inactive) | GI50 (Hs-578T): 2.83 µM (inactive) | GI50 (K562): 0.774 µM (active) | GI50 (KM12): 0.718 µM (active) | GI50 (M14): 0.346 µM (active) | GI50 (MCF7): 0.597 µM (active) | GI50 (Malme-3M): 8.89 µM (inactive) | GI50 (NCI-H226): 0.916 µM (active) | GI50 (OVCAR-5): 52.1 µM (inactive) | GI50 (RPMI-8226): 0.944 µM (active) | GI50 (SF-539): 0.461 µM (active) | GI50 (SK-MEL-5): 0.212 µM (active) | GI50 (SR): < 0.01 µM (active) | GI50 (SW-620): 7.59 µM (inactive) | GI50 (T47D): 12.9 µM (inactive) | GI50 (U-251): 0.045 µM (active) | GI50 (UACC-62): 0.192 µM (active)
